Reference: a melting point compilation (Tetko et al.; mined from patent text by program, amines drawn as free bases though some values may be those of a salt)

SMILES	melting point [°C]
COc1cc2c(cc1OC)CCC(N(Cc1ccccc1)C(=O)c1ccc(C)cc1)=C2	183 to 185
CCOC(=O)C1CCN(c2nnc(NCc3ccc4c(c3)OCO4)c3ccncc23)CC1	135 to 136
CCOC(=O)C=C(C)Nc1cc(C)ccc1C	67
COC(=O)c1nn(Cc2ccc(Cl)cc2Cl)c2ccccc12	168 to 170
CN1CCN=C1C(C#N)=NO	216
CC(C)(C)C(=O)OCOC(=O)COc1ccc(Cc2ccc(Cl)cc2)cc1	54 to 55
O=C(O)c1cnn2c(C(F)(F)F)cc(-c3ccc(C(F)(F)F)cc3)cc12	> 250
O=C(O)CCCc1cc2nc(Cl)ccc2n1S(=O)(=O)c1ccc(N2CCCC2)cc1	88
CCC(CC)O[C@@H]1C=C(C(=O)O)C[C@H](CC(O)CO)[C@H]1NC(C)=O (stereo partly specified)	189 to 190
COc1cc(C(F)(F)F)sc1CN1C(=O)C2(COc3cc4c(cc32)OCO4)c2ccccc21 (stereo unspecified)	178 to 180
COc1cc(N)c(Br)cc1C(=O)NC1CCN(CC2CCN(C(N)=O)CC2)CC1	228 to 230
O=c1c2c(Cl)cccc2nc(C(S)c2ncnc3[nH]cnc23)n1-c1ccccc1Cl (stereo unspecified)	234
O=C(O)c1ccc(-c2nc(-c3ccc(Cl)cc3)cs2)cc1	284 to 285
COc1cc(C=CC(=O)OC2CC3CC(OC(=O)C=Cc4cc(OC)c(OC)c(OC)c4)C(C2)N3C)cc(OC)c1OC (stereo unspecified)	53 to 57
Cc1cccc2c1N(CC(=O)N1CC3CCC(CC3)C1)C(=O)C(NC(=O)Nc1cccc(C(=O)OC(C)(C)C)c1)N=C2c1ccccc1F (stereo unspecified)	230 to 232
NC(=O)CNC(=S)Nc1ccccc1	150 to 152
O=C1C=C(c2cccc(Cl)c2)CN(Cc2ccccc2)C1	143 to 145
Cc1nccn1-c1cccc(C2=CC(=O)OC(C)(C)O2)c1	122
CN1CCCC2(CCn3c(c(C4=C(c5cn(C)c6ccccc56)C(=O)NC4=O)c4ccccc43)C2)C1 (stereo unspecified)	144 to 146
CCCN1c2nc(-c3cn[nH]c3)ccc2NC(=O)c2cccnc21	291 to 292
Fc1cccc2oc(CCC#Cc3ccccn3)nc12	89 to 89.5
O=C(O)[C@H](Cc1ccccc1)NS(=O)(=O)c1ccc2c(c1)Sc1ccccc1O2	120 to 130
CC(C)=C1NC(=O)c2ccccc2S1	187 to 188
COc1ccccc1C=C1CS(=O)(=O)CC(=Cc2ccccc2OC)C1=O	198 to 200
CC(C)CCC1C(=O)NS(=O)(=O)N1C (stereo unspecified)	212 to 214
COCCCn1c(Cl)nc2ccc(C)cc21	40 to 44

SMILES	melting point [°C]
O=C1NC(=O)c2ccccc2/C1=C/Nc1ccc(CN2CCCCC2)cc1	185 to 186
CC(C)(C)COc1ccc([N+](=O)[O-])cc1C#N	90 to 91
CC(C)OC(N)=C(C#N)C(=N)S	170
COC(c1ccccc1)c1nc2c(N)nc3ccccc3c2n1CC(C)C (stereo unspecified)	183 to 184
CCOC(=O)c1oc(SC)c2c1CCCC2=O	123 to 124
Cc1cc(-c2nc3c(s2)C(=O)c2ccccc2C3=O)oc1C	250
CCC(=O)NCCCSc1ccc(Cl)cc1	69 to 70
CCOC(=O)c1ccc(/C=C/c2ccc(O)c(C3(C)CCCCC3)c2)cc1	149
Cc1c(C(=O)OC(C)(C)C)c(O)cc2c1C(=O)c1c(O)cccc1C2=O	207
Cc1cccc(NC(=O)NC2C(=O)N(CC34CC5CC(CC(C5)C3)C4)c3ccccc3N(c3ccccc3)C2=O)c1 (stereo unspecified)	244 to 246
COc1nc2cccc(C(=O)O)c2n1Cc1ccc(-c2ccccc2-c2nc(=O)o[nH]2)cc1	189 to 190
CC(C)NCC(O)c1ccc(N)c(C(F)(F)F)c1 (stereo unspecified)	136 to 138
O=C(O)Cc1ccsc1Cc1nc2c(F)c(F)cc(F)c2s1	142 to 144
CCCCCCC/C=C/C(=O)NCC(C)C	42 to 45
O=C(OCc1ccc[nH]c1=O)c1ccc(F)cc1	170 to 173
CCCCCCOc1c(F)cc(F)c(C(N)=O)c1F	89 to 90
OCc1cnc2cc(C(F)(F)F)ccc2c1O	302 to 304
CCN(c1ccc(C(=O)O)cc1)c1cc2c3c(c1)CCCC3(C)CCC2	279 to 280
O=CNCC=C(c1ccc(-c2ccccc2)cc1)c1ccc(-c2ccccc2)cc1	171 to 173
CCCC(CCC)n1nnc2c(Nc3c(C)cc(C)cc3Br)nc(C)nc21	141 to 142
CCOC(=O)c1cn(-c2ccc(F)cc2F)c2c(Cl)c(F)c(F)cc2c1=O	211 to 212
COC(=O)c1cc(C2CCCO2)c(C(F)(F)F)cc1N (stereo unspecified)	131 to 136
Cc1cc2c(cc1C(F)(F)F)N(Cc1cccc(C(=O)O)c1)CCC[C@@H]2N(Cc1cc(C(F)(F)F)cc(C(F)(F)F)c1)c1nnn(C)n1	83 to 86
COc1ccc2c(c1)CCC1C2CCC2(C)C(NCc3ccc(O)c(OC)c3)CCC12 (stereo unspecified)	169 to 170
NC(=O)N(O)CCNC(=O)c1cc2c(Cl)cccc2s1	181 to 184
COc1ccc([C@H](C)NC(=O)COc2cc(C(F)(F)F)c3c(-c4ccccc4)nn(C)c3n2)cc1	172 to 174

SMILES	melting point [°C]
CC(C)c1nc(CCCO)n(C)c1Sc1cc(Cl)cc(Cl)c1	124 to 125
CC(CNc1cccc(C(F)(F)F)c1)Nc1cccc(C(F)(F)F)c1 (stereo unspecified)	116 to 120
CC(C)(C)C1CCCC=C1c1ccc(C(=O)O)cc1 (stereo unspecified)	197
CC(C)c1cccc(-c2c(Cl)ccc3c2C=C(C(=O)O)C(C(F)(F)F)O3)c1 (stereo unspecified)	184 to 186
O=C(O)CCC(CS(=O)(=O)c1ccc2ccccc2c1)C(=O)N(CCC1CCCCC1)CCC1CCCCC1 (stereo unspecified)	138 to 140
Cc1cc(C(O)(CNC(=O)c2ccc(Cl)cc2)C(F)(F)F)ccc1NC(=O)OC(C)(C)C (stereo unspecified)	160 to 162
COc1cc(NCCCCCCN2CCN(C(=NC#N)SC)CC2)c2nccc(C)c2c1	97 to 99
CSCC(C)(CN)C(=O)N(C)c1nnc(-c2cncc(F)c2)s1 (stereo unspecified)	154 to 157
CCCCCCCCCCCCCCCCCC(=O)Oc1ccc([N+](=O)[O-])cc1OC(=O)CCCCCCCCCCCCCCCCC	68 to 70
CC(C)(C)c1cc2c(n1-c1ccc(O)c(C(=O)O)c1)CCc1ccccc1-2	258 to 260
O=c1cc(CO)occ1OCCC12CC3CC(CC(C3)C1)C2	155 to 157
CCOC(=O)NNC1=Nc2sc(CC)cc2C(c2ccccc2Cl)=NC1	207
CN1CC(CN2CC(=O)NC2=O)CC2c3cccc4c3c(cn4C)CC21 (stereo unspecified)	292 to 294
N#Cc1ccc2nc(CCl)[nH]c2c1	144 to 146
COCC(C)OC(=O)c1ccc([N+](=O)[O-])cc1[N+](=O)[O-] (stereo unspecified)	42
CO[C@]1(c2cc(F)cc(S(=O)(=O)c3ccc(/C(C)=N/O)cc3)c2)CCO[C@@H](C)C1	149
N#Cc1cnn(-c2ccc(OC(F)(F)F)cc2Cl)c1N	115
COC(=O)c1ccc2c(c1)Sc1ccc(F)cc1C(O)=C2	85 to 88
COc1cc(C(C)C)c2c(c1)S(=O)(=O)N(COc1cc(C(F)(F)F)nn1C)C2=O	107 to 108
N[C@@H](CSc1ccccc1[N+](=O)[O-])C(=O)O	168 to 171
CCOC(=O)c1cc(N)nc(SCc2ccc3ccccc3c2)n1	188 to 189
CC1CSC(=O)C2Cc3ccccc3N2C1=O (stereo unspecified)	108 to 110
O=C(O)COc1ccc2c(c1)CCc1sc(S(=O)(=O)CCC(c3ccccc3)c3ccccc3)nc1-2	175 to 177
CC(O)(CO)c1cccc(OCc2ccc3ccccc3c2)c1 (single isomer, unassigned; (-))	104 to 106
O=C(O)c1ccc(OCc2ccccc2)c(Cl)c1	211 to 213
CC(=O)NCC1CN(c2ccc(N3CCS(=O)CC3)c(F)c2)C(=O)O1 (stereo unspecified)	159 to 161

SMILES	melting point [°C]
CN1CCN(c2cccc3ccc(NCc4ccccc4)cc23)CC1	115 to 117
Nc1ccc2c(c1)C(=O)C1(CC1)S2	148 to 150
COCNC(=O)CNC(=O)OCc1ccccc1	77 to 78
C[C@]1(CN2CCC(NC(=O)Nc3ccc(C(F)(F)F)cc3)CC2)Cn2cc([N+](=O)[O-])nc2O1	137 to 140
CCCOc1cc([N+](=O)[O-])ccc1N	59 to 61
C#CCOc1ccc(C(=O)C=Cc2ccc(C#N)cc2)c(O)c1	188 to 190
CC(C)OCC(=O)C1CCC2C3CCC4CC(O)CCC4(C)C3C(=O)CC12C (stereo unspecified)	121 to 125
COC12CC(C)(c3nnc(-c4cncc(Br)c4)[nH]3)CN(C)C1Cc1c[nH]c3cccc2c13 (stereo unspecified)	163 to 168
CC(C)C(=O)Oc1ccc(C(=O)c2ccccc2)cc1	69 to 69.5
S=c1cc(-c2ccccc2)c(S)n[nH]1	146 to 148
Cc1nccn1Cc1nc2ccccc2n1-c1ccccc1	124 to 126
FC(F)(F)c1nc2cc(Cl)c(Cl)cc2nc1-c1nc2ccccc2o1	157 to 158
CC(C)NC(=O)C(O)C(Oc1ccccc1)c1ccccc1 (stereo unspecified)	166 to 168
CCCCCCCCCCCC(=O)NC1C(C)C(c2ccccc2)NC(c2ccccc2)C1C (stereo unspecified)	112 to 114
CCCc1nc2cnc3cccnc3c2n1CC1(O)CCOC1 (stereo unspecified)	151 to 152
Clc1ccc(C2=CCN(CCCCn3cncn3)CC2)cc1	101 to 103
CCCCCCCCCCCCCCCCCCOc1cccc(N(CC(=O)OC)CC(=O)OC)c1	75 to 77
CNc1ccc(N=O)cc1	115 to 117
O=C(NC(=O)c1ccccc1)NC1CCCc2sccc21 (stereo unspecified)	189 to 194
COc1cc(C2c3cc4c(cc3C(N)C3COC(=O)C23)OCO4)cc(OC)c1O[Si](C)(C)C(C)(C)C (stereo unspecified)	236 to 238
COc1cc(C=CC(=O)c2ccc(I)cc2O)cc(OC)c1OC	140 to 141
CCCCCCCCCCNC1=CC(=O)c2c(OC)ccc(OC)c2C1=O	86 to 87
CCCOc1ccccc1-c1nc2nc(N(CC)CCO)ncc2c(=O)[nH]1	141 to 142
